For orientation: Emax means the size of the effect at its maximum, as opposed to the concentration needed. What is called EC50 is the concentration giving half of the maximal effect.

From US20250230155A1 (Vanderbilt University, priority 2021, published 2025) come the findings set out here.

The test addresses T1, human mAChR M4 (Homo sapiens, UniProt P08173).
T1 construct: expressed in transfected cells
T1 sequence (P08173 1-479): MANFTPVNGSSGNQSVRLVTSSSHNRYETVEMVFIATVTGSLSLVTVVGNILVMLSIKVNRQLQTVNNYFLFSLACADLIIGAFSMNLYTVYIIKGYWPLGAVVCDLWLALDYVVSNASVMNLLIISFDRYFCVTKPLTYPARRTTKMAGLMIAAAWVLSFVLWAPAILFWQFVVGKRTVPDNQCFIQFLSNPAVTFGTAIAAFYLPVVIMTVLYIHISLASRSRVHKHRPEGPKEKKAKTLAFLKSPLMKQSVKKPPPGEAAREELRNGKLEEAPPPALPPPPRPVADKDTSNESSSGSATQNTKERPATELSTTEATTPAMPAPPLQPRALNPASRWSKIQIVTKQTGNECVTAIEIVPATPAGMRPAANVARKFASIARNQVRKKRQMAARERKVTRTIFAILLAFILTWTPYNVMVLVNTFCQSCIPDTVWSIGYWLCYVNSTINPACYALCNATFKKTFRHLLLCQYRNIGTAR
Briefly: mAChR M4 cell-based functional assay (calcium mobilization, CHO-K1 hM4-Gqi5 cells). Particulars: for Emax at 30 µM: CHO-K1, % ACh maximum at 30 μM, human M4; for EC50: positive allosteric modulator activity, increase in the EC20 acetylcholine response, CHO-K1 hM4-Gqi5 cells, read-out: Human M4 EC50. Put shortly:
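Fluorescent calcium read-out (Fluo-4 AM, FDSS, 1 Hz) in hM4-Gqi5 CHO-K1 cells, 11-point 1:3 compound series. Agonism scored on compound addition, PAM activity as increase of the 144 s EC20 acetylcholine response, antagonism as decrease of the 230 s EC80 response; four-parameter logistic fits give EC50 and Emax.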
(In general: A change in cytosolic calcium serves as a functional read-out for many receptors and channels.)

Turning to `Cc1cc(C#N)cnc1N1CCc2ncc(OCCOc3ccc(F)cc3)cc2C1` [Example 428, 6-(3-(2-(4-fluorophenoxy)ethoxy)-7,8-dihydro-1,6-naphthyridin-6(5H)-yl)-5-methylnicotinonitrile], the Emax at 30 µM is 59% and the EC50 was 2.35 µM.

Consider `Cc1nc(Cl)c(C)c(N2CCc3ncc(-c4ccc(N(C)C)nc4)cc3C2)n1` [compound 220, 5-(6-(6-chloro-2,5-dimethylpyrimidin-4-yl)-5,6,7,8-tetrahydro-1,6-naphthyridin-3-yl)-N,N-dimethylpyridin-2-amine], for which the Emax at 30 µM amounted to 82% and the concentration for a half-maximal effect (EC50) turned out to be 0.518 µM.

On to `Cc1cc(C#N)cnc1N1CCc2ncc(N3CCOC(c4cccnc4)C3)cc2C1` (centres unmarked) [Example 389, 5-methyl-6-(3-(2-(pyridin-3-yl)morpholino)-7,8-dihydro-1,6-naphthyridin-6(5H)-yl)nicotinonitrile], for which the Emax at 30 µM turned out to be 92% and the EC50 is 0.942 µM.

On to `Cc1nc(Cl)c(C)c(N2CCc3ncc(-c4cnn(C5CCC5)c4)cc3C2)n1` [compound 195, 6-(6-chloro-2,5-dimethyl-pyrimidin-4-yl)-3-(1-cyclobutylpyrazol-4-yl)-7,8-dihydro-5H-1,6-naphthyridine], for which the maximum response (Emax) at 30 µM stood at 80% and the EC50 came out at 0.611 µM.

With `Cc1cc(C#N)cnc1N1CCc2ncc(-c3ccc(F)nc3)cc2C1` [Example 319, 6-(3-(6-fluoropyridin-3-yl)-7,8-dihydro-1,6-naphthyridin-6(5H)-yl)-5-methylnicotinonitrile], the maximal effect (Emax) at 30 µM was 76% and the EC50 worked out at 0.144 µM.

As to `Cc1c(C#N)nnc(N2CCc3ncc(N4CCC(C)n5nccc54)cc3C2)c1C` (centres unmarked) [Example 364, 4,5-dimethyl-6-(3-(7-methyl-6,7-dihydropyrazolo[1,5-a]pyrimidin-4(5H)-yl)-7,8-dihydro-1,6-naphthyridin-6(5H)-yl)pyridazine-3-carbonitrile], the Emax at 30 µM is 98% and the concentration giving a half-maximal response (EC50) came to 0.321 µM.

As for `Cc1cc(C#N)nnc1N1CCc2ncc(Nc3ccnn3C)cc2C1` [Example 311, 5-methyl-6-(3-((1-methyl-1H-pyrazol-5-yl)amino)-7,8-dihydro-1,6-naphthyridin-6(5H)-yl)pyridazine-3-carbonitrile], the maximal response (Emax) at 30 µM came out at 94% and the EC50 came out at 0.239 µM.

Regarding `Cc1cc(C(=O)N2CC(F)C2)nnc1N1CCc2ncc(Nc3ccnn3C)cc2C1` [Example 559, (3-fluoroazetidin-1-yl)(5-methyl-6-(3-((1-methyl-1H-pyrazol-5-yl)amino)-7,8-dihydro-1,6-naphthyridin-6(5H)-yl)pyridazin-3-yl)methanone], the Emax at 30 µM is 73% and the concentration for a half-maximal effect (EC50) worked out at 0.064 µM.

Take `Cc1cnc2c(c1)CN(c1ncc(C(=O)NCc3cncs3)cc1C)CC2` [Example 439, 5-methyl-6-(3-methyl-7,8-dihydro-1,6-naphthyridin-6(5H)-yl)-N-(thiazol-5-ylmethyl)nicotinamide]: the Emax at 30 µM was 108% and the concentration for a half-maximal effect (EC50) is 0.138 µM.

As for `Cc1nc(C)c(C)c(N2CCc3ncc(-c4ccc(-n5ccnc5)nc4)cc3C2)n1` [compound 232, 3-(6-(1H-imidazol-1-yl)pyridin-3-yl)-6-(2,5,6-trimethylpyrimidin-4-yl)-5,6,7,8-tetrahydro-1,6-naphthyridine], the Emax at 30 µM is 61% and the EC50 worked out at 0.263 µM.

Turning to `Cc1nc(Cl)c(C)c(N2CCc3ncc(-c4cncs4)cc3C2)n1` [compound 94, 5-[6-(6-chloro-2,5-dimethyl-pyrimidin-4-yl)-7,8-dihydro-5H-1,6-naphthyridin-3-yl]thiazole], the Emax at 30 µM amounted to 91% and the EC50 came out at 0.0969 µM.

For `FC(F)(F)c1cnc2c(c1)CN(c1nc(C3CC3)nc3c1CCCC3)CC2` [compound 266, 2-cyclopropyl-4-(3-(trifluoromethyl)-7,8-dihydro-1,6-naphthyridin-6(5H)-yl)-5,6,7,8-tetrahydroquinazoline], the Emax at 30 µM was found to be 38% and the EC50 was determined as 4.57 µM.

As for `Cc1nc(C)c(C)c(N2CCc3ncc(-c4ccc(N5CCOCC5)nc4)cc3C2)n1` [compound 227, 4-(5-(6-(2,5,6-trimethylpyrimidin-4-yl)-5,6,7,8-tetrahydro-1,6-naphthyridin-3-yl)pyridin-2-yl)morpholine], the Emax at 30 µM came to 67% and the EC50 was found to be 0.266 µM.

Consider `Cc1ccccc1OCCOc1cnc2c(c1)CN(c1ncc(C#N)cc1C)CC2` [Example 430, 5-methyl-6-(3-(2-(o-tolyloxy)ethoxy)-7,8-dihydro-1,6-naphthyridin-6(5H)-yl)nicotinonitrile], for which the maximal effect (Emax) at 30 µM was 42% and the EC50 is 6.53 µM.

Consider `Cc1nc(Cl)c(C)c(N2CCc3ncc(N4CCCn5nccc54)cc3C2)n1` [compound 243, 6-(6-chloro-2,5-dimethylpyrimidin-4-yl)-3-(6,7-dihydropyrazolo[1,5-a]pyrimidin-4(5H)-yl)-5,6,7,8-tetrahydro-1,6-naphthyridine], for which the Emax at 30 µM was found to be 102% and the EC50 turned out to be 0.025 µM.

In the case of `Cc1c(C#N)nnc(N2CCc3ncc(Nc4ccnn4C)cc3C2)c1C` [compound 169, 4,5-dimethyl-6-[3-[(2-methylpyrazol-3-yl)amino]-7,8-dihydro-5H-1,6-naphthyridin-6-yl]pyridazine-3-carbonitrile], the Emax at 30 µM came out at 100% and the concentration for a half-maximal effect (EC50) worked out at 0.111 µM.

`Cc1ncc(CNC(=O)c2cnc(N3CCc4ncccc4C3)c(C)c2)s1` [compound 127, 6-(7,8-dihydro-5H-1,6-naphthyridin-6-yl)-5-methyl-N-[(2-methylthiazol-5-yl)methyl]pyridine-3-carboxamide]: the Emax at 30 µM stood at 67% and the EC50 worked out at 2.62 µM.

Turning to `Cc1nn(C)cc1-c1cnc2c(c1)CN(c1nc(CO)nc(C)c1C)CC2` [compound 226, (4-(3-(1,3-dimethyl-1H-pyrazol-4-yl)-7,8-dihydro-1,6-naphthyridin-6(5H)-yl)-5,6-dimethylpyrimidin-2-yl)methanol], the maximum response (Emax) at 30 µM was 89% and the EC50 was 0.346 µM.

Regarding `Cc1c(C#N)nnc(N2CCc3ncc(-c4cnn(CCN5CCOCC5)c4)cc3C2)c1C` [Example 325, 4,5-dimethyl-6-(3-(1-(2-morpholinoethyl)-1H-pyrazol-4-yl)-7,8-dihydro-1,6-naphthyridin-6(5H)-yl)pyridazine-3-carbonitrile], the Emax at 30 µM was 51% and the concentration giving a half-maximal response (EC50) stood at 2.95 µM.

For the compound `Cc1cc(C(=O)NCc2cnc(Cl)s2)cnc1N1CCc2ncccc2C1` [compound 134, N-[(2-chlorothiazol-5-yl)methyl]-6-(7,8-dihydro-5H-1,6-naphthyridin-6-yl)-5-methyl-pyridine-3-carboxamide], the Emax at 30 µM came out at 69% and the 50% effective concentration (EC50) worked out at 1.64 µM.

For the compound `Cc1cc(C(=O)N2CC(Cl)C2)nnc1N1CCc2ncc(N3CCO[C@H](C)C3)cc2C1` [Example 538, (R)-(3-chloroazetidin-1-yl)(5-methyl-6-(3-(2-methylmorpholino)-7,8-dihydro-1,6-naphthyridin-6(5H)-yl)pyridazin-3-yl)methanone], the Emax at 30 µM came to 103% and the EC50 was 0.054 µM.

`COc1nc(N2CCc3ncc(C(F)(F)F)cc3C2)c(C)cc1C#N` [Example 371, 2-methoxy-5-methyl-6-(3-(trifluoromethyl)-7,8-dihydro-1,6-naphthyridin-6(5H)-yl)nicotinonitrile]: the maximal effect (Emax) at 30 µM was found to be 75% and the EC50 turned out to be 4.35 µM.
